Here are results for one molecule from patent US20240140895A1, “NOVEL AROMATIC MOLECULES” (XENIOPRO GmbH, priority 2018, published 2024).

For this test, the system named is HL-60 cells (human acute myeloid leukemia cells). Put plainly: Proliferation assay (alamarBlue) with HL-60 cells. The format is cell-based. The source says:
The antiproliferative activities of compounds falling under formula (Ia), (Tb) and (Ic), respectively, were investigated on cells or cell lines originating from a disorder of the haematopoietic system, including the myeloid cell compartment and the lymphoid cell compartment (T-cells and B-cells), the neuroendocrine system, the cervix, the breast, the ovaries, the lung, the gastrointestinal tract, and the mucosal epithelium, as well as from the skin epithelium and from the muscle. To this end, HL-60 cells, NB-4 cells, HH cells, RPMI-8402 cells, TANOUE cells, TT cells, HeLa cells, MDA-MB-231 cells, FU-OV-1 cells, LOU-NH91 cells, 23132/87 cells, CAL-27 cells, BHY cells, SCC-25 cells, A-431 cells, human primary epidermal keratinocytes (HPEK), and C2C12 cells were seeded into 96-well plates suitable for fluorescence assays (CORNING #3598) at following initial cell numbers: 1000 cells per well for HL-60; 1000 cells per well for NB-4; 5000 cells per well for HH; 5000 cells per well for RPMI-8402; 1500 cells per well for TANOUE; 9000 cells per well for TT; 2000 cells per well for HeLa; 3000 cells per well for MDA-MB-231; 3000 cells per well for FU-OV-1; 4000 cells per well for LOU-NH91; 2000 cells per well for 23132/87; 2000 cells per well for CAL-27; 1500 cells per well for BHY; 1500 cells per well for SCC-25; 700 cells per well for A-431; 1000 cells per well for HPEK; 500 cells per well for C2-C12. The cells were treated with compounds at indicated final concentrations (diluted from the 1000× stock-solutions in DMSO to a final DMSO concentration of 0.1% v/v in H2O (Water For Injection, WFI, Fisherscientific #10378939)) or with the empty carrier DMSO at 0.1% v/v as control for 5 days. At day 5 after starting the treatments the cells were subjected to the alamarBlue® Proliferation Assay (Bio-Rad Serotec GmbH, BUF012B) according to the protocol of the manufacturer. The readout was taken with a multi-well plate-reader in the fluorescence mode with applying a filter for excitation at 560 nm (band width 10 nm) and for emission at 590 nm (band width 10 nm). Control treatments for growth inhibition with commercial compounds such as Methotrexate (MTREX) and Resveratrol (RES) were included on every plate. Some of the test compounds of the present invention were obtained and applied as their salts. According cases are indicated in the column “Specification” in Table 30 to Table 62 and by their sum formula in Table 63.
The assays were performed in duplicate or more replicates of independent single experiments each containing a six-fold replicate for every condition. For every individual plate, the measured fluorescence intensity values of the conditions with compound treatment were normalized against the corresponding equally weighted arithmetic mean of the fluorescence intensity values of the six DMSO treated control wells in order to obtain the relative values to a baseline level of 1.0.
Two independent outlier analyses were performed according to the methods by Peirce and Chauvenet (Ross, Journal of Engineering Technology 2003, 1-12). Outliers confirmed by at least one of the methods were excluded from the calculations but not more than one value out of six per compound within a single experiment. The weighted arithmetic mean (here abbreviated as AVEw) for each compound was calculated from the normalized values over all independent replicates of the single experiments comprising the six replicates each. The corresponding standard deviation for the weighted arithmetic mean was calculated according to the method described by Bronstein et al. (Bronstein, Semendjajew, Musiol, Muhlig, Taschenbuch der Mathematik, 5th edition 2001 (German), publisher: Verlag Harri Deutsch, Frankfurt am Main and Thun) and was combined with the Gauβ′ error propagation associated with the performed calculation for the normalization. The resulting standard deviation is herein referred to as “combined standard deviation”. […]
(In general: Alamar Blue is a resazurin reagent that responds to reducing activity.)

In the case of `Oc1ccc(C=Cc2cc(O)cc(O)c2)cc1` [RES, resveratrol, reference compound], the activity at 20 µM (Homo sapiens, Table 30, compound at 20 μM, read-out: Activity Range (AVEw, weighted arithmetic mean of normalized fluorescence intensity, DMSO = 1.0)) amounted to 40 ± 10%. Also, the “Activity Range (AVEw, weighted arithmetic mean of normalized fluorescence intensity, DMSO = 1.0)” value (Table 31, compound at 20 μM) is listed as 0.4 ± 0.1.
